From the NIST ThermoML archive (doi:10.1016/j.jct.2012.06.020)

Experiment: mn = molality of the nth substance listed, in mol/kg
Conditions: 101 kPa, Liquid; for mass density: Vibrating tube method; for speed of sound: OPTIME 1.0 from OPTEL

O=S(=O)([O-])C(F)(F)F.O=S(=O)([O-])C(F)(F)F.O=S(=O)([O-])C(F)(F)F.[Lu+3] [lutetium(III) trifluoromethanesulfonate] + C[S+](C)[O-]
Conditions	mass density, 293.15 K [kg/m3]	mass density, 298.15 K [kg/m3]	mass density, 303.15 K [kg/m3]	mass density, 313.15 K [kg/m3]	mass density, 323.15 K [kg/m3]	mass density, 333.15 K [kg/m3]	speed of sound, 298.15 K [m/s]
m1 = 0.01878	1108.65	1103.62	1098.6	1088.57	1078.53	1068.49	–
m1 = 0.02625	1112.04	1107.02	1101.99	1091.95	1081.91	1071.88	–
m1 = 0.03372	1115.44	1110.42	1105.39	1095.36	1085.32	1075.28	–
m1 = 0.03373	–	–	–	–	–	–	1479.8
m1 = 0.04075	1118.67	1113.64	1108.62	1098.58	1088.54	1078.51	1478.9
m1 = 0.05063	1123.23	1118.2	1113.17	1103.14	1093.11	1083.07	1477.6
m1 = 0.06739	1131.05	1126.03	1121	1110.97	1100.94	1090.91	1475.5
m1 = 0.0825	1138.19	1133.17	1128.14	1118.09	1108.05	1098.05	1473.6
m1 = 0.09757	1145.41	1140.38	1135.36	1125.31	1115.27	1105.25	1471.7
m1 = 0.1139	1153.31	1148.28	1143.26	1133.2	1123.17	1113.14	1469.6
m1 = 0.1294	1160.93	1155.9	1150.87	1140.81	1130.77	1120.74	1467.6
m1 = 0.145	1168.67	1163.64	1158.61	1148.56	1138.52	1128.5	1465.7
m1 = 0.1599	1176.2	1171.16	1166.13	1156.07	1146.04	1136.01	1463.9
